Laboratory results from patent US20260373294A1, “PHARMACEUTICAL COMPOSITIONS COMPRISING A PSYCHEDELIC DRUG AND A DENDRITIC NANOCARRIER” (priority 2023, published 2026).
“Also recorded” adds a separate entry of the source. Where two headings read alike, the source gives them in different places.

Key:
[1] = test system: N-methyl-D-aspartate receptor (NMDAR); settings: cited from earlier work
[2] = cited from earlier work
[3] = Diffusion cell tests with porcine oral mucosa (Franz cells) (Example 8); assay type: in vitro ADME; settings: 2.5% DendroSol; 0.025 mg/100 μL LSD
Procedure: FIG. 3 Diffusion cell tests with psilocin, LSD and MDMA in Franz cells in the absence and presence of carrier. The tests were carried out with porcine oral mucosa as described in Example 8 below. Each carrier formulation was used on four diffusion cells each. In the graphic, mean values are shown.
Diffusion cell tests were carried out with porcine oral mucosa. Porcine mucosa was freshly prepared and kept in physiological buffer at pH 7.2 at temperatures between 2-8 °C for less than 36 h prior the experiment. The prepared oral mucosa thickness was 0.4-0.65 mm. Concentrations were determined by HPLC-UV. Four diffusion cells with a surface area of 0.54 cm^2 and an acceptor volume of 12.7 mL were used in the experiments for each formulation. Drug-carrier solutions wherein the solvent was water were prepared by either dissolving the drug in ethanol in a glass beaker, letting the ethanol evaporate under high vacuum and then dissolving the drug in the buffered nanocarrier solution. Alternatively, the drug was mixed with the carrier in ethanol in final conditions, the resulting mixture was dried under high vacuum in case of psilocin and afterwards re-dissolved in purified HPLC water.
Each carrier formulation was used on four diffusion cells each. In the graphic, the results were averaged.
Acceptor medium was physiological NaCl solution which was phosphate-buffered to pH 7.2. […]

5-HT2A receptor = settings: cited from earlier work
[4] = taken by mouth; cited from earlier work
[5] = Exemplary stability experiment, visual grading of psilocin samples with carriers or stabilizers (Example 6); assay type: physicochemical; design: key to stability, visually graded, under Vacuum at 25 °C / stability, visually graded, at room temperature exposed to air / stability, visually graded, at 50 °C, exposed to air: 0: dark precipitate visible = not stable; 1: discolored = moderately stabilized; 2: slightly discolored = stabilized; 3: transparent = highly stabilized
From the text: Psilocin was mixed with two different batches of CMS carrier (DendroSol®), two different batches of dendritic succinate (hPG-succ, one of which had 25% substitution with succinate, the other one 100%) and two different batches of dendritic succinate functionalized with nalbuphine as anchor molecule (liked via an ester), as well as dendritic succinate deprotonized with NaOH. For comparison, we also mixed psilocin with known stabilizers oxalic acid and ascorbic acid (vitamin C), as well as mixtures of vitamin C with the carriers named above. One sample of pure psilocin solution was kept as a reference.
All samples contained 5 mg/L of psilocin and 2.5 wt % of carrier (for carriers mixed with oxalic acid or vitamin C, the total concentration of additives was 2.5 wt %). In the second part of the experiment, the carrier concentration was varied between 0.6 and 3 wt %.

[6] = cited from earlier work; remark: listed apart in the source
[7] = intravenous administration of psilocybin; US2022370413A1; cited from earlier work

## CNC1(c2ccccc2Cl)CCCCC1=O (racemic) [(R,S)-ketamine]
[1]
  NMDAR antagonism / interaction: antagonist of the NMDAR
[2]; patients with treatment-resistant post-traumatic stress disorder
  effect in treatment-resistant PTSD: beneficial effects
[2]; treatment-resistant MDD or BD, single or repeated intravenous infusions, 0.5 mg/kg
  antidepressant effect: robust antidepressant and antisuicidal effects

## CN[C@@]1(c2ccccc2Cl)CCCCC1=O [(R)-ketamine]
[2]; (R)-ketamine relative to (S)-ketamine
  antidepressant potency and duration, relative: more long-lasting; also recorded: greater potency and longer-lasting antidepressive effects

## CN[C@]1(c2ccccc2Cl)CCCCC1=O [(S)-ketamine]
[1]
  NMDAR antagonism / interaction: stronger

## CCN(CC)C(=O)[C@@H]1C=C2c3cccc4[nH]cc(c34)C[C@H]2N(C)C1 [LSD]
[3]
  effect of carrier on diffusion rate, water vs ethanol as solvent: the effect was greater when water was used as solvent than with use of ethanol as solvent
5-HT2A receptor; listed as (+) lysergide
  5-HT2A receptor agonism: partial agonist with a high affinity to this receptor
5-HT2A receptor; listed as lysergide
  5-HT2A receptor agonism: 5-HT2A receptor agonists

## CNC(C)Cc1ccc2c(c1)OCO2 (stereo not shown) [MDMA, 3,4-methylenedioxymethamphetamine]
[4]
  duration of effects: 3 to 6 h
  onset of effects: 30 to 45 min

## CN(C)CCc1c[nH]c2cccc(O)c12 [Psilocin]
[5]; 50 °C, exposed to air, all samples contain psilocin (5 mg/L) and 2.5 wt % carrier/additive
  stability, visually graded, at 50 °C, exposed to air: 0
[5]; conclusion in words
  stability of psilocin, conclusion: could be significantly improved by adding the right carriers
[5]; order of effectiveness, lowest first
  effectiveness of carriers for stabilizing psilocin (ranking): pure psilocin<CMS carrier (DendroSol®)<oxalic acid<dendritic succinate (25%)<dendritic succinate (100%)=functionalized dendritic succinate=dendritic succinate deprotonized with NaOH
[5]; room temperature, exposed to air, all samples contain psilocin (5 mg/L) and 2.5 wt % carrier/additive
  stability, visually graded, at room temperature exposed to air: 0
[5]; under vacuum at 25 °C, all samples contain psilocin (5 mg/L) and 2.5 wt % carrier/additive
  stability, visually graded, under Vacuum at 25 °C: 3
5-HT2A receptor
  5-HT2A receptor agonism: 5-HT2A receptor agonists
[6]; blood or urine
  stability in biological samples: unstable and is degraded fast by both non-enzymatic and enzymatic processes
[6]; exposed to air and aqueous
  stability in ambient and aqueous environments: poor stability due to photodegradation and oxidation
[6]; psilocin sample protected from light, 14 days
  peak loss over 14 days: 50%

## CNC1(c2ccccc2Cl)CCCCC1=O (stereo not shown) [ketamine]
[1]
  NMDAR antagonism / interaction: antagonist of the N-methyl-D-aspartate receptor

## COc1cc(CCN)cc(OC)c1OC [mescaline]
5-HT2A receptor
  5-HT2A receptor agonism: 5-HT2A receptor agonists

## CN(C)CCc1c[nH]c2cccc(OP(=O)(O)O)c12 [psilocybin]
[7]
  variation of maximum plasma concentrations of psilocin between individuals: can vary over three-fold between individuals
